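1) Cells in 96-well plates. 2) Compound, 48 h, 5 concentrations. 3) Linear interpolation between surrounding doses. 4) Unreached endpoint = highest concentration. At the TGI there is no net growth.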
What was measured:
Experiment in all cases: NCI anticancer screen, dose series, 48 h
EKVX NSCLC = test system: EKVX NSCLC
NCI/ADR-RES ovarian = test system: NCI/ADR-RES ovarian
CAKI-1 renal = test system: CAKI-1 renal
MOLT-4 leukemia = test system: MOLT-4 leukemia
COLO 205 colon = test system: COLO 205 colon
SK-OV-3 ovarian = test system: SK-OV-3 ovarian
A498 renal = test system: A498 renal
UACC-257 melanoma = test system: UACC-257 melanoma
PC-3 prostate = test system: PC-3 prostate
HOP-62 NSCLC = test system: HOP-62 NSCLC
KM12 colon = test system: KM12 colon
NCI-H226 lung = test system: NCI-H226 lung
OVCAR-8 ovarian = test system: OVCAR-8 ovarian
HL-60(TB) leukemia = test system: HL-60(TB) leukemia
RXF 393 renal = test system: RXF 393 renal
IGROV1 ovarian = test system: IGROV1 ovarian
SF-539 CNS = test system: SF-539 CNS
SR leukemia = test system: SR leukemia
HS 578T breast = test system: HS 578T breast

Row | Compound | TGI (EKVX NSCLC) [µM] | TGI (NCI/ADR-RES ovarian) [µM] | TGI (CAKI-1 renal) [µM] | TGI (MOLT-4 leukemia) [µM] | TGI (COLO 205 colon) [µM] | TGI (SK-OV-3 ovarian) [µM] | TGI (A498 renal) [µM] | TGI (UACC-257 melanoma) [µM] | TGI (PC-3 prostate) [µM] | TGI (HOP-62 NSCLC) [µM] | TGI (KM12 colon) [µM] | TGI (NCI-H226 lung) [µM] | TGI (OVCAR-8 ovarian) [µM] | TGI (HL-60(TB) leukemia) [µM] | TGI (RXF 393 renal) [µM] | TGI (IGROV1 ovarian) [µM] | TGI (SF-539 CNS) [µM] | TGI (SR leukemia) [µM] | TGI (HS 578T breast) [µM]
1 | CCOc1ccc(N/C(=C(/C(Cl)=C(/Cl)Nc2ccccc2)[N+](=O)[O-])n2nnc3ccccc32)cc1 | > 100 | 53.7 | 60.4 | > 100 | 50.6 | > 100 | > 100 | > 100 | 58.4 | 70.3 | > 100 | > 100 |  |  |  |  |  |  | 
2 | COC(=O)[C@H](Cc1ccccc1)NC(=O)/C(=C/C(C)C)NC(=O)[C@H](CCSC)NC=O | > 100 |  | > 100 | > 100 | > 100 | > 100 | > 100 | > 100 |  | > 100 | > 100 | > 100 | > 100 | > 100 | > 100 | > 100 | > 100 | > 100 | 
3 | CCOP(=O)(C=C=C1CCC2[C@@H]3CCc4cc(OC)ccc4C3CC[C@]12C)OCC (stereo partly specified) | 21.9 | 24.2 | 26.6 |  | 22.7 | 31.8 | 25.9 | 19.6 | 15 | 30 | 26.2 | 21.6 | 29.3 | 2.87 | 14.8 | 23.6 | 29 |  | 40.3
4 | Clc1ccc(Nc2nnc(CCCCCCCCc3nnc(Nc4ccc(Cl)cc4)o3)o2)cc1 | > 100 | > 100 | > 100 | > 100 | > 100 | > 100 | > 100 | > 100 | > 100 | > 100 | 99.2 | > 100 |  |  |  | > 100 |  |  | 
5 | CC(=O)N(C)c1ccc(N=CN(C)C)cc1 | > 100 | > 100 | > 100 | > 100 | > 100 | > 100 | > 100 | > 100 | > 100 | > 100 |  | > 100 | > 100 | > 100 | > 100 | > 100 | > 100 | > 100 | 
6 | CC(C)(C)c1cc(-c2cc(C(C)(C)C)[nH]n2)n[nH]1 | > 100 |  | > 100 | > 100 | > 100 | > 100 | > 100 | > 100 | > 100 | > 100 |  | > 100 |  | > 100 | > 100 | > 100 | > 100 | > 100 | > 100
7 | COc1ccc(N=C2S/C(=N\C(=Nc3ccccc3)SCc3ccccc3)N(c3ccccc3)C2=Nc2ccc(OC)cc2)cc1 | > 100 |  |  | > 100 | > 100 |  |  | > 100 | > 100 | > 100 | > 100 | > 100 | > 100 | > 100 | > 100 | > 100 |  | > 100 | > 100
8 | O=C(Cn1cc(-c2ccccc2)nn1)NC1CCCCC1 | > 100 | > 100 | > 100 | > 100 | > 100 |  |  | > 100 | > 100 | > 100 | > 100 | > 100 | > 100 | > 100 |  | > 100 | > 100 | > 100 | 
9 | CC(=O)OCC(C)C1=C(OC(C)=O)C(=O)C2(C)C/C=C(/C)CC/C=C(\C)CCC(OC(C)=O)C(C)CCC12 (stereo unspecified) |  |  |  | 27.9 | 37.8 |  |  | 35.8 | 30.2 | 27.5 | 36.9 |  | 44.9 | 27.5 |  | 48.3 | 38.7 | 40.3 | 60
10 | O=C1c2cccnc2S(=O)(=O)N1c1ccc(Oc2ccccc2)cc1 | > 100 | > 100 | > 100 | > 100 | > 100 | > 100 | > 100 | > 100 | > 100 | > 100 | > 100 | > 100 | > 100 | > 100 | > 100 | > 100 | > 100 | > 100 | 
11 | CCCCCCCCOCC(O)COC(C)C (stereo unspecified) |  |  | > 100 | 45 | > 100 | > 100 | > 100 | 72.7 |  | > 100 |  | > 100 | > 100 | 31.7 |  | > 100 |  | 40.2 | 
12 | Nc1ccc2nc3c(nc2c1)C(=O)c1ccccc1-3 | > 100 | > 100 |  | > 100 | > 100 | > 100 |  | > 100 | > 100 | > 100 | > 100 | > 100 | > 100 | > 100 | > 100 | > 100 | > 100 |  | > 100
13 | C=CCc1[nH]c2c(OCc3ccccc3)cc(N(CC=C)C(C)=O)cc2c1C | 21 | 31 | 29.9 | 30.7 | 30.1 | 31.9 | 25 | 30.6 | 20.2 | 36.7 | 30.1 | 37.2 | 27.4 | 39.9 | 26.7 | 28 | 32 |  | 30.8
14 | N#C[C@H](C(=O)c1ccccc1F)c1nc2ccccc2s1 | > 100 | > 100 | > 100 | 96.1 | 53.8 | > 100 | > 100 | > 100 | > 100 | > 100 | 38.6 | > 100 | > 100 | 79.2 | > 100 | > 100 | 59.8 |  | > 100
15 | CC(=O)C1C(=O)C(=O)N(c2ccccc2)C1=O (stereo unspecified) | > 100 | > 100 | > 100 | > 100 | > 100 | > 100 |  | > 100 | > 100 | > 100 | > 100 | > 100 | > 100 | > 100 | > 100 | > 100 | > 100 |  | > 100

From PubChem BioAssay (NCI)
